Assay results from patent US12421207B2 (CMG Pharmaceutical Co., Ltd., priority 2022, dated 2025).
Read-outs that look alike come from different tables or passages of the source.

What was measured:
[1] = system: HCC827/OR cells; test: Cell viability assay (CellTiter-Glo 2.0), osimertinib-resistant HCC827/OR cells; assay type: cell-based, human; conditions: Homo sapiens, HCC827, 72 h drug treatment, read-out: Relative cell viability, IC50 HCC827OR
Text: (§1) To explore c-MET and AXL mechanisms of EGFR TKI resistance, resistant cells of the EGFR TKI hypersensitive EGFR exon 19 mutant NSCLC cell line, HCC827 and PC9 were generated by exposing these cells to increasing concentrations of EGFR TKI for over 3 months.
(§2) Gefitinib-resistant cells were referred to as HCC827/GR. […] Osimertinib-resistant cells were referred to as HCC827/OR.

[2] = system: HCC827/ER cells; test: Cell viability assay (CellTiter-Glo 2.0), erlotinib-resistant HCC827/ER cells; assay type: cell-based, human; conditions: Homo sapiens, HCC827ER, read-out: Relative cell viability
Text: as §1, §2

[3] = system: PC9/ER cells; test: Cell viability assay (CellTiter-Glo 2.0), erlotinib-resistant PC9/ER cells; assay type: cell-based; conditions: Homo sapiens, PC-9/ER, 72 h drug treatment, read-out: Relative cell viability, IC50 PC9ER
Text: as §1, §2

[4] = system: HCC827/GR cells; test: Cell viability assay (CellTiter-Glo 2.0), gefitinib-resistant HCC827/GR cells; assay type: cell-based, human; conditions: Homo sapiens, HCC827, 72 h drug treatment, read-out: Relative cell viability, IC50 HCC827GR
Text: as §1
The human cell line HCC827 was purchased from the American Type Culture Collection (Manassas, VA), and the PC9 cell line was obtained from RIKEN Cell Bank (Ibaraki, Japan). […] Gefitinib-resistant cells were referred to as HCC827/GR. […] Osimertinib-resistant cells were referred to as HCC827/OR.
(§3) Cell viability assays were carried out by plating 1,000 cells per well of HCC827 or PC9 resistant cells, respectively, into white transparent-bottom 384-well plates. The cells were treated with each TKI across a 10-dose range from 1 nM to 10,000 nM. After 72 h of drug treatment, cell viability was measured using the CellTiter-Glo 2.0 assay (Promega, Madison, WI).
as §3

[5] = Table 4, combinations of EGFR TKIs and inhibitor of Formula (I)
[6] = Table 4, 72 h drug treatment, combinations of EGFR TKIs and inhibitor of Formula (I)
[7] = Table 2, EGFR TKI resistant cells, combination with EGFR TKI
[8] = Table 2, 72 h drug treatment, EGFR TKI resistant cells, combination with EGFR TKI

Compound | IC50 [1, 5] [nM] | IC50 [2, 6] [nM] | IC50 [3, 5] [nM] | IC50 [4, 5] [nM] | IC50 [1, 7] [nM] | IC50 [2, 8] [nM] | IC50 [3, 7] [nM] | IC50 [4, 7] [nM]
Cn1nc(C(=O)Nc2ccc(Oc3ccnc(N)c3C#CCC3CCNCC3)c(F)c2)c(=O)n(-c2ccc(F)cc2)c1=O [Example 46, N-(4-((2-amino-3-(3-(piperidin-4-yl)prop-1-yn-1-yl)pyridin-4-yl)oxy)-3-fluorophenyl)-4-(4-fluorophenyl)-2-methyl-3,5-dioxo-2,3,4,5-tetrahydro-1,2,4-triazine-6-carboxamide] | < 10000 | < 10000 | < 10000 | < 1000 | – | – | – | –
Cn1nc(C(=O)Nc2ccc(Oc3ccnc(N)c3C#CCN3CCOCC3)c(F)c2)c(=O)n(-c2ccc(F)cc2)c1=O [Example 49, N-(4-(2-amino-3-(3-morpholinoprop-1-ynyl)pyridin-4-yloxy)-3-fluorophenyl)-4-(4-fluorophenyl)-2-methyl-3,5-dioxo-2,3,4,5-tetrahydro-1,2,4-triazine-6-carboxamide] | < 10000 | < 10000 | < 1000 | < 1000 | – | – | – | –
CC(C)n1cc(C(=O)Nc2ccc(Oc3ccnc(N)c3C#CC(=O)N3CCNCC3)c(F)c2)c(=O)n(-c2ccc(F)cc2)c1=O [Example 1, N-(4-(2-amino-3-(3-oxo-3-(piperazin-1-yl)prop-1-ynyl)pyridin-4-yloxy)-3-fluorophenyl)-3-(4-fluorophenyl)-1-isopropyl-2,4-dioxo-1,2,3,4-tetrahydropyrimidine-5-carboxamide] | – | – | – | – | < 10 | < 10 | < 10 | < 10
Nc1nccc(Oc2ccc(NC(=O)c3c[nH]c(=O)n(-c4ccc(F)cc4)c3=O)cc2F)c1C#CCC1CCNCC1 [Example 53, N-(4-(2-amino-3-(3-(piperidin-4-yl)prop-1-ynyl)pyridin-4-yloxy)-3-fluorophenyl)-3-(4-fluorophenyl)-2,4-dioxo-1,2,3,4-tetrahydropyrimidine-5-carboxamide] | < 10000 | < 1000 | < 10000 | < 10000 | – | – | – | –
CC(C)n1cc(C(=O)Nc2ccc(Oc3ccnc(N)c3C#CC(C)(C)N3CCNCC3)c(F)c2)c(=O)n(-c2ccc(F)cc2)c1=O [Example 19, N-(4-(2-amino-3-(3-methyl-3-(piperazin-1-yl)but-1-ynyl)pyridin-4-yloxy)-3-fluorophenyl)-3-(4-fluorophenyl)-1-isopropyl-2,4-dioxo-1,2,3,4-tetrahydropyridmidine-5-carboxamide] | – | – | – | – | < 100 | < 10 | < 100 | < 100
CC(C)n1cc(C(=O)Nc2ccc(Oc3ccnc(N)c3C#N)c(F)c2)c(=O)n(-c2ccc(F)cc2)c1=O [Example 5, N-(4-(2-amino-3-cyanopyridin-4-yloxy)-3-fluorophenyl)-3-(4-fluorophenyl)-1-isopropyl-2,4-dioxo-1,2,3,4-tetrahydropyrimidine-5-carboxamide] | – | – | – | – | < 100 | < 10 | < 1000 | < 100
CC(C)n1cc(C(=O)Nc2ccc(Oc3ccnc(N)c3-c3ccccc3)c(F)c2)c(=O)n(-c2ccc(F)cc2)c1=O [Example 22, N-(4-(2-amino-3-phenylpyridin-4-yloxy)-3-fluorophenyl)-3-(4-fluorophenyl)-1-isopropyl-2,4-dioxo-1,2,3,4-tetrahydropyrimidine-5-carboxamide] | – | – | – | – | < 100 | < 100 | < 100 | < 10
CN(C)C(=O)Cn1cc(C(=O)Nc2ccc(Oc3ccnc(N)c3C#CCN3CCOCC3)c(F)c2)c(=O)n(-c2ccc(F)cc2)c1=O [Example 34, N-(4-((2-amino-3-(3-morpholinoprop-1-yn-1-yl)pyridin-4-yl)oxy)-3-fluorophenyl)-1-(2-(dimethylamino)-2-oxoethyl)-3-(4-fluorophenyl)-2,4-dioxo-1,2,3,4-tetrahydropyrimidine-5-carboxamide] | < 10000 | < 1000 | < 10000 | < 1000 | – | – | – | –
C=CCn1cc(C(=O)Nc2ccc(Oc3ccnc(N)c3C#CC(C)(C)N3CCOCC3)c(F)c2)c(=O)n(CC=C)c1=O [Example 70, 1,3-diallyl-N-(4-(2-amino-3-(3-methyl-3-morpholinobut-1-ynyl)pyridin-4-yloxy)-3-fluorophenyl)-2,4-dioxo-1,2,3,4-tetrahydropyrimidine-5-carboxamide] | < 1000 | < 1000 | < 10000 | < 1000 | – | – | – | –

Continued, values first:

IC50 [1, 5] [nM] | IC50 [2, 6] [nM] | IC50 [3, 5] [nM] | IC50 [4, 5] [nM] | IC50 [1, 7] [nM] | IC50 [2, 8] [nM] | IC50 [3, 7] [nM] | IC50 [4, 7] [nM] | Compound
< 1000 | < 1000 | < 1000 | < 10000 | – | – | – | – | Nc1nccc(Oc2ccc(NC(=O)c3c[nH]c(=O)n(-c4ccc(F)cc4)c3=O)cc2F)c1C#CCN1CCOCC1 [Example 51, N-(4-(2-amino-3-(3-morpholinoprop-1-ynyl)pyridin-4-yloxy)-3-fluorophenyl)-3-(4-fluorophenyl)-2,4-dioxo-1,2,3,4-tetrahydropyrimidine-5-carboxamide]
< 1000 | < 10 | < 1000 | < 100 | – | – | – | – | Nc1nccc(Oc2ccc(NC(=O)c3cn(C4CCOCC4)c(=O)n(-c4ccc(F)cc4)c3=O)cc2F)c1C#CCN1CCOCC1 [Example 56, N-(4-(2-amino-3-(3-morpholinoprop-1-ynyl)pyridin-4-yloxy)-3-fluorophenyl)-3-(4-fluorophenyl)-2,4-dioxo-1-(tetrahydro-2H-pyran-4-yl)-1,2,3,4-tetrahydropyrimidine-5-carboxamide]
< 1000 | < 100 | < 1000 | < 100 | – | – | – | – | CN1CCN(C(C)(C)C#Cc2c(Oc3ccc(NC(=O)c4cn(C5CCOCC5)c(=O)n(-c5ccc(F)cc5)c4=O)cc3F)ccnc2N)CC1 [Example 57, N-(4-(2-amino-3-(3-methyl-3-(4-methylpiperazin-1-yl)but-1-ynyl)pyridin-4-yloxy)-3-fluorophenyl)-3-(4-fluorophenyl)-2,4-dioxo-1-(tetrahydro-2H-pyran-4-yl)-1,2,3,4-tetrahydropyrimidine-5-carboxamide]
< 1000 | < 100 | < 1000 | < 100 | – | – | – | – | CC(C)(C#Cc1c(Oc2ccc(NC(=O)c3cn(C4CCOCC4)c(=O)n(-c4ccc(F)cc4)c3=O)cc2F)ccnc1N)N1CCOCC1 [Example 55, N-(4-(2-amino-3-(3-methyl-3-morpholinobut-1-ynyl)pyridin-4-yloxy)-3-fluorophenyl)-3-(4-fluorophenyl)-2,4-dioxo-1-(tetrahydro-2H-pyran-4-yl)-1,2,3,4-tetrahydropyrimidine-5-carboxamide]
< 1000 | < 100 | < 1000 | < 100 | – | – | – | – | Cc1nc(Cn2cc(C(=O)Nc3ccc(Oc4ccnc(N)c4C#CC(C)(C)N4CCN(C)CC4)c(F)c3)c(=O)n(-c3ccc(F)cc3)c2=O)cs1 [Example 42, N-(4-((2-amino-3-(3-methyl-3-(4-methylpiperazin-1-yl)but-1-yn-1-yl)pyridin-4-yl)oxy)-3-fluorophenyl)-3-(4-fluorophenyl)-1-((2-methylthiazol-4-yl)methyl)-2,4-dioxo-1,2,3,4-tetrahydropyrimidine-5-carboxamide]
< 1000 | < 1000 | < 1000 | < 1000 | – | – | – | – | Cn1nc(C(=O)Nc2ccc(Oc3ccnc(N)c3C#CC(C)(C)N3CCOCC3)c(F)c2)c(=O)n(-c2ccc(F)cc2)c1=O [Example 48, N-(4-(2-amino-3-(3-methyl-3-morpholinobut-1-ynyl)pyridin-4-yloxy)-3-fluorophenyl)-4-(4-fluorophenyl)-2-methyl-3,5-dioxo-2,3,4,5-tetrahydro-1,2,4-triazine-6-carboxamide]
< 1000 | < 100 | < 100 | < 100 | – | – | – | – | Cc1nc(Cn2cc(C(=O)Nc3ccc(Oc4ccnc(N)c4C#CCC4CCN(C)CC4)c(F)c3)c(=O)n(-c3ccc(F)cc3)c2=O)cs1 [Example 43, N-(4-((2-amino-3-(3-(1-methylpiperidin-4-yl)prop-1-yn-1-yl)pyridin-4-yl)oxy)-3-fluorophenyl)-3-(4-fluorophenyl)-1-((2-methylthiazol-4-yl)methyl)-2,4-dioxo-1,2,3,4-tetrahydropyrimidine-5-carboxamide]
